Data on 1 molecule can be found in patent EP0765662A1, “HIV GROWTH INHIBITORY COMPOSITION” (Kochi, Mutsuyuki, priority 1994, dated 1995).

Structures can show the parent of a compound that is named as a salt. Where two headings read alike, the source gives them in different places.

One series relates to HIV. Put plainly: HIV-p24 antigen in culture supernatant of HIV-infected mitogen-derived blast cells of PBMC. Format: cell-based. As to conditions: for Amount of HIV-p24 antigen: PHA-activated PBMC blast cells, culture supernatant. The protocol:
The cytotoxicity of SBA against the A3.01 cells, at a high SBA concentration of 1000 µg of SBA/ml, was such that the rate of survival of said cells was about 70%. The above results of testing the cytotoxicity of SBA indicate that the cytotoxicity of SBA against the above various cells is fairly low. On the other hand, with the HIV-infected A3.01 cells, it is seen that the presence of SBA at concentrations in a range of from 500 to 800 µg of SBA/ml gives the rate of survival of the HIV-infected A3.01 cells at a level as low as 3-24%. […] (b) Tests of examining the inhibitory activities of SBA against infestion of HIV to mitogen-derived blast cells of human periphery blood monocytic cell (PBMC) and against proliferation of HIV in the HIV-infected blast cells of PMBC as well as against replication of the viral particles of HIV in the HIV-infected blast cells of PBMC, where HIV was made to infest the blast cells of PBMC of which the blastogenesis has been induced by a mitogen. Such blast cells of PBMC, which were blastogenetically transformed by activation with PHA […] as a mitogen, were cultivated and then made to be infested with HIV either by inoculation of HIV or by inoculation of HIV which had been pretreated with SBA. The HIV-infected cells so obtained continued further to be incubated in the culture media containing different concentrations of SBA. Then, the supernatant of the resulting cultures was separated, and the amount of the viral particles of HIV as released in the supernatant so obtained was measured. This measurement of the released amount of the viral particles of HIV was made by determining the amount of HIV-p24 antigen, i.e. a structural protein of HIV, existing in the supernatant, as a substitute index which can represent the amount of the viral particles of HIV so released in said supernatant.

A further series has as its system ICR strain mice. Put plainly: Evaluation of toxicity (intravenous, mice). As to conditions: intravenously, 1000 mg per kg body weight, male, 5 mice in each group. Format: in vivo. The method, then:
SBA in the form of a solution in a physiological saline (containing […]) was administered intravenously to ICR strain mice (5 week-aged, male, 5 mice in each group) at a dosage of 1000 mg per kg of the body weight of mice tested.

For a further series, the system named is HIV-1 (HTLV-IIIB strain). Put plainly: Occurrence of HIV-1 positive cells in U1 cells with or without TPA stimulation (indirect fluorescent antibody technique). The series is classed as cell-based. The settings on record: for Rate (%) of occurrence of HIV-1 positive cells: U1 cells. The method, then:
As the cell to be tested here for estimation of the occurrence of HIV in this Example, there were used such U1 cells which had been prepared by introducing 2 copies of the gene DNA of HIV-1 (HTLV-IIIB strain) into U937 cells (human monocytic blast-like cells, namely one sort of human T-cells). The U1 cell is an HIV potentially-infected T-cell wherein the HIV-1 gene is present merely as provirus.
The above-mentioned U1 cells were seeded and incubated in Costar 48-well-plates under such different conditions as indicated below. Thus, the U1 cells were seeded in a culture medium and were incubated in the presence of 5,6-O-benzylidene-L-ascorbic acid mono-sodium salt (hereinafter abbreviated as SBA) as incorporated at different concentrations by addition of SBA to the culture medium, or the U1 cells were incubated in the absence of SBA. The incubation of these U1 cells was further effected with such both two types of those U1 cells, namely with such one type of U1 cells which had been stimulated further by addition of TPA at various concentrations thereto, and with such another type of U1 cells which had not been stimulated by TPA.
When the U1 cells as stimulated by the addition of TPA were incubated, replication of the viral particles of HIV took place in considerable numbers of the U1 cells, resulting in the production of the HIV antigen within the cells, so that said cells thus became such HIV-positive cells which could sprout and release the viral particles of HIV therefrom. This replication of the viral particles of HIV can be detected by an indirect fluorescent antibody technique as illustrated below.
The U1 cells were thus incubated under the different conditions as explained in the above, including such a case where both SBA and TPA were not added; such a case where SBA was added, but TPA was not added; such a case where SBA was not added, but TPA was added; and such as case where both SBA and TPA were added, respectively. Then, the replication of the viral particles of HIV within the U1 cells, and the release of the viral particles of HIV from the U1 cells so incubated under the different conditions as above mentioned were detected by means of the indirect fluorescence technique in which there were employed a mouse monoclonal antibody having an anti-HIV-1 activity as a primary antibody and also employed an FITC-rabbit-originated […] as a secondary antibody. The number of the U1 cells which could be detected as the HIV-positive cells was calculated in term of percentage (%) on the basis of the total numbers of the U1 cells as subjected to the test, and it was expressed as the rate (%) of occurrence or appearance of the HIV-1 positive cells.

A short description of series [1]: Cytotoxicity of SBA, trypan blue dye-exclusion, A3.01 cells. The series is classed as cell-based. The settings on record: human, read-out: Rate of survival of the cells (%). From the text: It is known that stimulation of HIV gene by TPA and tumor necrosis factor (TNF) can activate the HIV gene which is latent as the HIV-provirus within the T-cells as infected with HIV and said stimulation can thus strongly induce the progresses of sprouting and release of the viral particles of HIV. It is considered that said activation of the HIV gene for the occurrence or developement of HIV virus would be caused by such an oxidation stress which is brought about within the host cells by any stimulation given from outside the host cells as above-mentioned. Further, such discoveries and observations have been reported that NFkB, which is a nuclear factor wthin the cells, can play important part in the proliferation of HIV virus, and that the oxidation-reduction status of the NFkB is important for the activation of this factor NFkB, and so on. […] (a) Test of examining cytotoxicity of SBA against various kinds of T-cells A3.01 cells (HAT-susceptible CEM cell strain), A3.01 cells as infected with HIV, and the above-mentioned U1 cells were cultivated, respectively, in an improved RPM1-1640 media containing SBA added at different concentrations. After the cultivation, the number of the cells under test which still survived was determined under a polarizing microscope by a trypan blue dye-exclusion method.

With `O=C1O[C@H]([C@@H]2COC(c3ccccc3)O2)C(O)=C1O` (stereo partly drawn) [SBA, 5,6-O-benzylidene-L-ascorbic acid mono-sodium salt], in the series with HIV (PBMC blast cells infected with the SBA-pretreated HIV, cultivated in the presence of SBA), the “inhibition of the replication of the viral particles of HIV (in words)” value is given as “no appreciable effect of SBA to inhibit the replication of the viral particles of HIV can be observed”. For the same molecule, the “Amount of HIV-p24 antigen” value stood at 1500 pg/mL with HIV (SBA 10 µg/ml, cells as infected with HIV); 1240 pg/mL in the series with HIV (SBA 10 µg/ml, cells as infected with the SBA-pretreated HIV); 1400 pg/mL in the series with HIV (SBA 50 µg/ml, cells as infected with HIV); 1520 pg/mL in the series with HIV (SBA 50 µg/ml, cells as infected with the SBA-pretreated HIV); 380 pg/mL with HIV (SBA 100 µg/ml, cells as infected with HIV); 1430 pg/mL in the series with HIV (SBA 100 µg/ml, cells as infected with the SBA-pretreated HIV). For the same molecule, the “inhibition of the production of the HIV antigen (in words)” value in the series on HIV (SBA 100 µg/ml, PHA-activated PBMC blast cells infested with HIV) is given as “exhibited an effective activity inhibitory to the production of the HIV antigen”. Further, the mortality result in the series on ICR strain mice was “None of the mice thus treated died”. The IC50 with HIV-1 (HTLV-IIIB strain) (Human immunodeficiency virus 1, IIIB, U1 cells incubated in the presence of TPA, read-out: concentration of SBA required to achieve 50% inhibition of the replication of the HIV viral particles) is around 400 µg/mL. In addition, the “Rate (%) of occurrence of HIV-1 positive cells” value is 26% in the series with HIV-1 (HTLV-IIIB strain) (SBA 25 µg/ml, TPA (1 ng/ml) was added); 3% in the series with HIV-1 (HTLV-IIIB strain) (SBA 25 µg/ml, TPA was not added); 21% in the series on HIV-1 (HTLV-IIIB strain) (SBA 50 µg/ml, TPA (1 ng/ml) was added); 2% with HIV-1 (HTLV-IIIB strain) (SBA 50 µg/ml, TPA was not added); 16% with HIV-1 (HTLV-IIIB strain) (SBA 100 µg/ml, TPA (1 ng/ml) was added); 2% in the series on HIV-1 (HTLV-IIIB strain) (SBA 100 µg/ml, TPA was not added). The “Rate (%) of occurrence of HIV-1 positive cells” value is 14% in the series on HIV-1 (HTLV-IIIB strain) (SBA 200 µg/ml, TPA (1 ng/ml) was added); 3% in the series with HIV-1 (HTLV-IIIB strain) (SBA 200 µg/ml, TPA was not added); 12% with HIV-1 (HTLV-IIIB strain) (SBA 400 µg/ml, TPA (1 ng/ml) was added); 3% with HIV-1 (HTLV-IIIB strain) (SBA 400 µg/ml, TPA was not added); 8% with HIV-1 (HTLV-IIIB strain) (SBA 800 µg/ml, TPA (1 ng/ml) was added); 4% in the series on HIV-1 (HTLV-IIIB strain) (SBA 800 µg/ml, TPA was not added). In addition, the viability is 97% in series [1] (SBA 100 µg/ml) and around 70% in series [1] (SBA 1000 µg/ml).
